From article PMC2363616, “Mapping the HLA-A24-restricted T-cell epitope peptide from a tumour-associated antigen HER2 / neu: possible immunotherapy for colorectal carcinomas” (British Journal of Cancer, 2001)

System: CD8+ T cells of HLA-A24 healthy donors
Test: Primary CTL induction with peptide-pulsed autologous DCs, cytotoxicity tested on peptide-pulsed TISI
Format: cell-based, human
Conditions: data not shown

CC(C)C[C@H](NC(=O)[C@H](CC(C)C)NC(=O)[C@H](C)NC(=O)[C@H](CC(C)C)NC(=O)[C@H](CC(C)C)NC(=O)[C@H](CC(C)C)NC(=O)CNC(=O)[C@H](Cc1c[nH]c2ccccc12)NC(=O)[C@@H](N)CCCNC(=N)N)C(=O)O [HE1]
CTL induction activity (cytotoxicity of peptide-stimulated CTLs against the peptide-pulsed TISI): showed the cytotoxicity against the peptide- pulsed TISI
